According to patent US8389512B2 (priority 2008, dated 2013):

Test: 4 hr in-vivo study: meloxicam plasma concentration after oral delivery to rats
Details: rat
From the text: Male Sprague-Dawley rats, 250-300 g, received with a surgically implanted jugular catheter in place from (Harlan or Taconic Laboratories, USA). Animals were housed one per polycarbonate cage utilizing individual cage cards, with free access to food and water in accordance with NIH guidelines. Animals were quarantined at least 24 hrs after arrival prior to use and patency of the implanted catheter determined on the day of the test. Environmental controls for the animal room were set to maintain 18 to 26° C., a relative humidity of 30 to 70%, a minimum of 10 air changes/hour, and a 12-hour light/12-hour dark cycle. […] Each rat was weighed and the dose volume adjusted accordingly so that the effect of weight variability on results of study was eliminated and that each rat received 1 mg/kg dose.
Briefly, using a gradient elution with a Waters Symmetry C18 column (Waters Inc. USA), LCMS with selective reaction monitoring, protein precipitation of the plasma sample using acetonitrile where an LOQ of 50 ng/ml was achieved. Pharmacokinetic parameters were calculated from individual animal samples using appropriate software (PK Solutions 2.0, Summit Research Services, Montrose, Calif., USA).

Cc1cnc(NC(=O)C2=C(O)c3ccccc3S(=O)(=O)N2C)s1.O=C(O)CC(=O)O [Cocrystal 22, Meloxicam:Malonic Acid Cocrystal (1:1)]
meloxicam plasma concentration (time 0 min): 0 µg/mL | meloxicam plasma concentration (time 15 min): 7.51 µg/mL | meloxicam plasma concentration (time 30 min): 22.15 µg/mL | meloxicam plasma concentration (time 45 min): 27.00 µg/mL | meloxicam plasma concentration (time 60 min): 29.33 µg/mL | meloxicam plasma concentration (time 120 min): 29.57 µg/mL

Cc1cnc(NC(=O)C2=C(O)c3ccccc3S(=O)(=O)N2C)s1.O=C(O)CO [Cocrystal 28, Meloxicam:Glycolic Acid Cocrystal (1:1)]
meloxicam plasma concentration (time 0 min): 0 µg/mL | meloxicam plasma concentration (time 15 min): 6.25 µg/mL | meloxicam plasma concentration (time 30 min): 16.88 µg/mL | meloxicam plasma concentration (time 45 min): 22.66 µg/mL | meloxicam plasma concentration (time 60 min): 27.26 µg/mL | meloxicam plasma concentration (time 120 min): 20.77 µg/mL | meloxicam plasma concentration (time 240 min): 34.50 µg/mL

Cc1cnc(NC(=O)C2=C(O)c3ccccc3S(=O)(=O)N2C)s1.Cc1cnc(NC(=O)C2=C(O)c3ccccc3S(=O)(=O)N2C)s1.O=C(O)C[C@H](O)C(=O)O [Cocrystal 71, Meloxicam: L-Malic Acid Cocrystal (2:1)]
meloxicam plasma concentration (time 0 min): 0 µg/mL | meloxicam plasma concentration (time 15 min): 24.98 µg/mL | meloxicam plasma concentration (time 30 min): 32.05 µg/mL | meloxicam plasma concentration (time 45 min): 30.38 µg/mL | meloxicam plasma concentration (time 60 min): 30.95 µg/mL | meloxicam plasma concentration (time 240 min): 38.59 µg/mL

Cc1cnc(NC(=O)C2=C(O)c3ccccc3S(=O)(=O)N2C)s1.O=C(O)c1ccccc1O [Cocrystal 87, Meloxicam:Salicylic Acid Cocrystal Form I (1:1)]
meloxicam plasma concentration (time 0 min): 0 µg/mL | meloxicam plasma concentration (time 15 min, listed as 87): 23.61 µg/mL | meloxicam plasma concentration (time 30 min, listed as 87): 26.76 µg/mL | meloxicam plasma concentration (time 45 min, listed as 87): 28.85 µg/mL | meloxicam plasma concentration (time 60 min, listed as 87): 26.79 µg/mL | meloxicam plasma concentration (time 120 min, listed as 87): 34.16 µg/mL | meloxicam plasma concentration (time 240 min, listed as 87): 36.54 µg/mL

Cc1cnc(NC(=O)C2=C(O)c3ccccc3S(=O)(=O)N2C)s1.O=C(O)CCCC(=O)O [Cocrystal 92, Meloxicam:Glutaric Acid Cocrystal (1:1)]
meloxicam plasma concentration (time 0 min): 0 µg/mL | meloxicam plasma concentration (time 15 min): 5.61 µg/mL | meloxicam plasma concentration (time 30 min): 13.16 µg/mL | meloxicam plasma concentration (time 45 min): 19.11 µg/mL | meloxicam plasma concentration (time 60 min): 27.72 µg/mL | meloxicam plasma concentration (time 120 min): 35.94 µg/mL | meloxicam plasma concentration (time 240 min): 55.35 µg/mL

Cc1cnc(NC(=O)C2=C(O)c3ccccc3S(=O)(=O)N2C)s1.Cc1cnc(NC(=O)C2=C(O)c3ccccc3S(=O)(=O)N2C)s1.O=C(O)/C=C/C(=O)O [Cocrystal 143, Meloxicam:Fumaric Acid Cocrystal (2:1)]
meloxicam plasma concentration (time 0 min): 0 µg/mL | meloxicam plasma concentration (time 15 min): 3.33 µg/mL | meloxicam plasma concentration (time 30 min): 6.69 µg/mL | meloxicam plasma concentration (time 45 min): 9.69 µg/mL | meloxicam plasma concentration (time 60 min): 13.39 µg/mL | meloxicam plasma concentration (time 120 min): 20.93 µg/mL | meloxicam plasma concentration (time 240 min): 30.23 µg/mL

Cc1cnc(NC(=O)C2=C(O)c3ccccc3S(=O)(=O)N2C)s1.Cc1cnc(NC(=O)C2=C(O)c3ccccc3S(=O)(=O)N2C)s1.O=C(O)CCCCC(=O)O [Cocrystal 152, Meloxicam:Adipic Acid Cocrystal (2:1)]
meloxicam plasma concentration (time 0 min): 0 µg/mL | meloxicam plasma concentration (time 15 min): 9.72. μg/ml | meloxicam plasma concentration (time 30 min): 22.85 µg/mL | meloxicam plasma concentration (time 45 min): 28.37 µg/mL | meloxicam plasma concentration (time 60 min): 30.09 µg/mL | meloxicam plasma concentration (time 120 min): 38.23 µg/mL | meloxicam plasma concentration (time 240 min): 47.85 µg/mL

Cc1cnc(NC(=O)C2=C(O)c3ccccc3S(=O)(=O)N2C)s1.O=C(O)c1ccccc1 [Cocrystal 153, Meloxicam:Benzoic Acid Cocrystal (1:1)]
meloxicam plasma concentration (time 0 min): 0 µg/mL | meloxicam plasma concentration (time 15 min): 21.94 µg/mL | meloxicam plasma concentration (time 30 min): 25.88 µg/mL | meloxicam plasma concentration (time 45 min): 28.30 µg/mL | meloxicam plasma concentration (time 60 min): 28.11 µg/mL | meloxicam plasma concentration (time 120 min): 33.31 µg/mL | meloxicam plasma concentration (time 240 min): 42.51 µg/mL
